Laboratory results reported in US12024506B2, “Compounds” (Oxford University Innovation Limited, priority 2018, dated 2024).

Tests used:
[1] = system: DLD1 cells (ATCC CCL-221); experiment: Cell viability assay 1 (CellTiter-Glo), DLD1 cells; type: cell-based; details: Homo sapiens, DLD-1 cells, 48 h, second value of the cell, read-out: Cell Viability DLD-1 (concentration that decreases cell viability by 50%)
Method: (§1) Cells (A549 ATCC CCL-185) are cultured in Dulbecco's Modified Eagle's Medium plus 10% foetal calf serum and 2 mM L-glutamine at 37° C., 5% CO2. Cells are plated onto white clear bottom 96-well plates (5000 cells/well in 200 μl media) and left to adhere overnight at 37° C., 5% CO2. Next day, test compound (1 μl at 200× concentration in 100% DMSO) is added to give final test compound concentration 1× in 0.5% DMSO. After 48 h of incubation at 37° C., 5% CO2, 20 μl CellTiter-Glo reagent (Promega G7572) is added into each well. Plates are incubated at room temperature with shaking for 30 min and then luminescence is read using a PheraStar plate reader. The concentration of compounds that decrease cell viability by 50% is calculated from dose response curves generated using Dotmatics data analysis software.
In the DLD1 cell assay, cells (ATCC CCL-221) are cultured in RPMI-1640 medium plus 10% foetal calf serum and 2 mM L-glutamine at 37° C., 5% CO2.

[2] = target: T1, GST-human KRas166 (G12V) GPPNHP (Homo sapiens, UniProt P01116, G12V); experiment: KRas small-molecule screening by SPR (Biacore T200); type: binding; details: compound 100 uM, 5% DMSO buffer; immobilised GST-KRas166 (G12V) GPPNHP
T1 construct: made in house; host or cells: E. coli C41(DE3)
Outline: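 Biacore T200 screen: compounds at 100 uM final in 5% DMSO buffer (100 mM NaCl, 5 mM MgCl2) over GPPNHP-bound GST-KRas166 G12V captured by anti-GST antibody (10,000–15,000 RU) versus GST-only channel. Expected 1:1 Rmax 63 RU; DMSO solvent correction applied.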

[3] = system: H358 cells (ATCC CRL-5807); experiment: Cell viability assay 1 (CellTiter-Glo), H358 cells; type: cell-based; details: Homo sapiens, NCI-H358, 48 h, first value of the cell, read-out: Cell Viability H358 (concentration that decreases cell viability by 50%)
Method: as §1
In the H358 cell assay, cells (ATCC CRL-5807) are cultured in RPMI-1640 medium plus 10% foetal calf serum and 2 mM L-glutamine at 37° C., 5% CO2.

Row | Compound | IC50 [1] [µM] | SPR Response Units [2] [Response Units] | IC50 [3] [µM]
1 | CN1CCN(Cc2ccc(C(=O)NCC3COc4cccc(-c5ccc(OCc6ccccc6)cn5)c4O3)o2)CC1 (stereo not drawn) [Example 109, 5-(4-Methyl-piperazin-1-ylmethyl)-furan-2-carboxylic acid [8-(5-benzyloxy-pyridin-2-yl)-2,3-dihydro-benzo[1,4]dioxin-2-ylmethyl]-amide] | 9 | 114 | > 100
2 | COc1nc(-c2cccc3c2O[C@H](CNC(=O)C2CCOCC2)CO3)ccc1Nc1cccc(CN(C)C)c1 [Example 112, Tetrahydro-pyran-4-carboxylic acid {(R)-8-[5-(3-dimethylamino-methyl-phenylamino)-6-methoxy-pyridin-2-yl]-2,3-dihydro-benzo[1,4]dioxin-2-ylmethyl}-amide] | 16.3 | 90 | 18.8
3 | COc1nc(-c2cccc3c2OC(CNC(=O)C2CCOCC2)CO3)ccc1Nc1ccc(CNCc2ccccn2)cc1 (stereo not drawn) [Example 118, Tetrahydro-pyran-4-carboxylic acid {8-[6-methoxy-5-(4-{[(pyridin-2-ylmethyl)-amino]-methyl}-phenylamino)-pyridin-2-yl]-2,3-dihydro-benzo[1,4]dioxin-2-ylmethyl}-amide] | 11 | 291 | 12.8
4 | COc1nc(-c2cccc3c2OC(CNC(=O)C2CCOCC2)CO3)ccc1Nc1ccc(CNCc2ccncc2)cc1 (stereo not drawn) [Example 119, Tetrahydro-pyran-4-carboxylic acid {8-[6-methoxy-5-(4-{[(pyridin-4-ylmethyl)-amino]-methyl}-phenylamino)-pyridin-2-yl]-2,3-dihydro-benzo[1,4]dioxin-2-ylmethyl}-amide] | 11.2 | 349 | 10
5 | COc1nc(-c2cccc3c2OC(CNC(=O)C2CCOCC2)CO3)ccc1Nc1ccc(CNCc2ccn[nH]2)cc1 (stereo not drawn) [Example 120, Tetrahydro-pyran-4-carboxylic acid {8-[6-methoxy-5-(4-{[(2H-pyrazol-3-ylmethyl)-amino]-methyl}-phenylamino)-pyridin-2-yl]-2,3-dihydro-benzo[1,4]dioxin-2-ylmethyl}-amide] | 10.9 | 230 | 12.4
6 | COc1nc(-c2cccc3c2OCCO3)ccc1Nc1cccc(CNCc2cn[nH]c2)c1 [Example 126, [6-(2,3-Dihydro-benzo[1,4]dioxin-5-yl)-2-methoxy-pyridin-3-yl]-(3-{[(1H-pyrazol-4-ylmethyl)-amino]-methyl}-phenyl)-amine] | 5.3 | 210 | 5.4
7 | COc1nc(-c2cccc3c2OC(CNC(=O)C2CCOCC2)CO3)ccc1Nc1ccc(CNCC2COCCN2)cc1 (stereo not drawn) [Example 127, Tetrahydro-pyran-4-carboxylic acid{8-[6-methoxy-5-(4-{[(morpholin-3-ylmethyl)-amino]-methyl}-phenylamino)-pyridin-2-yl]-2,3-dihydro-benzo[1,4]dioxin-2-ylmethyl}-amide] | 18.9 | 205 | 16.9
8 | COc1nc(-c2cccc3c2OCCO3)ccc1Nc1ccc(CNC[C@@H]2COCCN2)cc1 [Example 128, [6-(2,3-Dihydro-benzo[1,4]dioxin-5-yl)-2-methoxy-pyridin-3-yl]-(4-{[((R)-1-morpholin-3-ylmethyl)-amino]-methyl}-phenyl)-amine] | 9.5 | 99 | 6.7
9 | COc1nc(-c2cccc3c2OCCO3)ccc1Nc1ccc(CNC[C@H]2COCCN2)cc1 [Example 129, [6-(2,3-Dihydro-benzo[1,4]dioxin-5-yl)-2-methoxy-pyridin-3-yl]-(4-{[((S)-1-morpholin-3-ylmethyl)-amino]-methyl}-phenyl)-amine] | 10.2 | 92 | 6.5
10 | COc1cc(NC(=O)C2CNCCO2)cc(-c2cccc3c2O[C@H](CNC(=O)c2ccc(CN4CCN(C)CC4)o2)CO3)n1 (stereo partly drawn) [Example 130, Morpholine-2-carboxylic acid{2-methoxy-6-[(R)-3-({[5-(4-methyl-piperazin-1-ylmethyl)-furan-2-carbonyl]-amino}-methyl)-2,3-dihydro-benzo[1,4]dioxin-5-yl]-pyridin-4-yl}-amide] | 11.9 | 61 | 13.6
11 | COc1cc(-c2cccc3c2OCCO3)ccc1Nc1ccc(CNCC2COCCN2)cc1 (stereo not drawn) [Example 132, [4-(2,3-Dihydro-benzo[1,4]dioxin-5-yl)-2-methoxy-phenyl]-(4-{[(morpholin-3-ylmethyl)-amino]-methyl}-phenyl)-amine] | 11 | 204 | 12.7
12 | CN1CCN(Cc2ccc(C(=O)NCC3COc4cccc(-c5cn(Cc6ccccc6)cn5)c4O3)o2)CC1 (stereo not drawn) [Example 138, 5-(4-Methyl-piperazin-1-ylmethyl)-furan-2-carboxylic acid[8-(1-benzyl-1H-imidazol-4-yl)-2,3-dihydro-benzo[1,4]dioxin-2-ylmethy]-amide] | 18 | 238 | > 100
13 | COc1nc(-c2cccc3c2OCCO3)ccc1Nc1cccc(CNc2cccnc2)c1 [Example 143] | 6.1 | 67 | 17
14 | c1cc2c(c(-c3ccc(Nc4ccc(CNCC5COCCN5)cc4)cc3)c1)OCCO2 (stereo not drawn) [Example 151, 4-(2,3-dihydrobenzo[b][1,4]dioxin-5-yl)-N-(4-(((morpholin-3-ylmethyl)amino)methyl)phenyl)aniline] | 1.36 | 150 | 14.7
15 | CN(C)Cc1cccc(Nc2ccc(-c3cccc4c3OCCO4)[nH]c2=O)c1 [Example 153, 6-(2,3-Dihydro-benzo[1,4]dioxin-5-yl)-3-(3-dimethylaminomethyl-phenylamino)-1H-pyridin-2-one] | 0.14 | 90 | 0.6
16 | c1cc2c(c(-c3cnc(Nc4ccc(CNCC5COCCN5)cc4)cn3)c1)OCCO2 (stereo not drawn) [Example 155, [5-(2,3-Dihydro-benzo[1,4]dioxin-5-yl)-pyrazin-2-yl]-(4-{[(morpholin-3-ylmethyl)-amino]-methyl}-phenyl)-amine] | 0.56 | 71 | 12.7
17 | CN(C)Cc1cccc(CN2CCN(c3cccc4c3OCCO4)CC2)c1 [Example 157, {3-[4-(2,3-Dihydro-benzo[1,4]dioxin-5-yl)-piperazin-1-ylmethyl]-benzyl}-dimethyl-amine] | > 150 | 7 | > 150
18 | COc1nc(-c2cccc3c2OCCO3)ccc1Nc1ccc(C(=O)NCC2CCN(C)CC2)cc1 [Example 158, 4-[6-(2,3-Dihydro-benzo[1,4]dioxin-5-yl)-2-methoxy-pyridin-3-ylamino]-N-(1-methyl-piperidin-4-ylmethyl)-benzamide] | 3.5 | 269 | 20.6
19 | COc1nc(-c2cccc3c2OCCO3)ccc1Nc1ccc(C(=O)NCC2CCC(=O)NC2)cc1 (stereo not drawn) [Example 159] | 14.1 | 122 | 24.7
20 | COc1nc(-c2cccc3c2OCCO3)ccc1Nc1ccc(C(=O)NCc2cn[nH]c2)cc1 [Example 160] | 11 | 89 | 20.7
21 | COc1nc(-c2cccc3c2OCCO3)ccc1Nc1cccc(C(=O)NCc2cccc(C)n2)c1 [Example 162, 3-[6-(2,3-Dihydro-benzo[1,4]dioxin-5-yl)-2-methoxy-pyridin-3-ylamino]-N-(6-methyl-pyridin-2-ylmethyl)-benzamide] | 3.9 | 36 | 27.9
22 | COc1nc(-c2cccc3c2OCCO3)ccc1Nc1cccc(C(=O)NCC2CCN(C)CC2)c1 [Example 163, 3-[6-(2,3-Dihydro-benzo[1,4]dioxin-5-yl)-2-methoxy-pyridin-3-ylamino]-N-(1-methyl-piperidin-4-ylmethyl)-benzamide] | 0.74 | 192 | 8.9
23 | COc1nc(-c2cccc3c2OCCO3)ccc1Nc1cccc(C(=O)NCC2CCC(=O)NC2)c1 (stereo not drawn) [Example 164, 3-[6-(2,3-Dihydro-benzo[1,4]dioxin-5-yl)-2-methoxy-pyridin-3-ylamino]-N-(6-oxo-piperidin-3-ylmethyl)-benzamide] | 4.8 | 136 | 25.9
